Measured values: PubChem BioAssay (NCI)
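How tested: cells in 96-well plates exposed to compound for 48 hours at five concentrations. Abbreviation: GI50, concentration required for 50% inhibition of growth. Definition used: TGI = concentration required for complete inhibition of growth.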

Columns and labels:
Experiment in all cases: NCI-60 cell line screen, 48 h
[1] = tested on: 786-0 renal
[2] = tested on: A498 renal
[3] = tested on: A549 NSCLC
[4] = tested on: ACHN renal
[5] = tested on: BT-549 breast
[6] = tested on: CAKI-1 renal
[7] = tested on: CCRF-CEM leukemia
[8] = tested on: COLO 205 colon
[9] = tested on: DU-145 prostate
[10] = tested on: EKVX NSCLC
[11] = tested on: HCC-2998 colon
[12] = tested on: HCT-116 colon
[13] = tested on: HCT-15 colon
[14] = tested on: HL-60(TB) leukemia
[15] = tested on: HOP-62 NSCLC
[16] = tested on: HOP-92 NSCLC
[17] = tested on: HS 578T breast
[18] = tested on: HT29 colon
[19] = tested on: IGROV1 ovarian
[20] = tested on: K-562 leukemia
[21] = tested on: KM12 colon
[22] = tested on: LOX IMVI melanoma
[23] = tested on: M14 melanoma
[24] = tested on: MALME-3M melanoma
[25] = tested on: MCF7 breast
[26] = tested on: MDA-MB-231 breast
[27] = tested on: MDA-MB-435
[28] = tested on: MDA-MB-468 breast
[29] = tested on: MOLT-4 leukemia
[30] = tested on: NCI-H226 lung
[31] = tested on: NCI-H23 lung
[32] = tested on: NCI-H460 lung
[33] = tested on: NCI-H522 lung
[34] = tested on: NCI/ADR-RES ovarian
[35] = tested on: OVCAR-3 ovarian
[36] = tested on: OVCAR-4 ovarian
[37] = tested on: OVCAR-5 ovarian
[38] = tested on: OVCAR-8 ovarian
[39] = tested on: PC-3 prostate
[40] = tested on: RPMI-8226 leukemia
[41] = tested on: RXF 393 renal
[42] = tested on: SF-268 CNS
[43] = tested on: SF-295 CNS
[44] = tested on: SF-539 CNS
[45] = tested on: SK-MEL-2 melanoma
[46] = tested on: SK-MEL-28 melanoma
[47] = tested on: SK-MEL-5 melanoma
[48] = tested on: SK-OV-3 ovarian
[49] = tested on: SN12C renal
[50] = tested on: SNB-19 CNS
[51] = tested on: SNB-75 CNS
[52] = tested on: SR leukemia
[53] = tested on: SW-620 colon
[54] = tested on: T-47D breast
[55] = tested on: TK-10 renal
[56] = tested on: U251 CNS
[57] = tested on: UACC-257 melanoma
[58] = tested on: UACC-62 melanoma
[59] = tested on: UO-31 renal

Cc1ccc(CNC(=O)Cc2ccc3c(c2)CN(C2CCC(=O)NC2=O)C3=O)cc1 (centres undefined)
GI50 [1]: 20.2 nM | GI50 [2]: 18.3 nM | TGI [2]: 648 nM | GI50 [3]: 51.5 nM | TGI [3]: > 100000 nM | GI50 [4]: 445 nM | TGI [4]: > 100000 nM | GI50 [5]: < 10 nM | TGI [5]: < 12.8 nM | GI50 [6]: 25.1 nM | TGI [6]: > 100000 nM | GI50 [7]: < 10 nM | TGI [7]: > 100000 nM | GI50 [8]: < 10 nM | TGI [8]: 54.5 nM | GI50 [9]: 1090 nM | TGI [9]: > 100000 nM | GI50 [10]: 384 nM | TGI [10]: > 100000 nM | GI50 [11]: < 10 nM | TGI [11]: 258 nM | GI50 [12]: > 36500 nM | TGI [12]: > 100000 nM | GI50 [13]: 16 nM | TGI [13]: 888 nM | GI50 [14]: < 10 nM | TGI [14]: 2740 nM | GI50 [15]: < 10 nM | TGI [15]: 110 nM | GI50 [16]: < 10 nM | TGI [16]: < 19.6 nM | GI50 [17]: < 10 nM | TGI [17]: 267 nM | GI50 [18]: 50.1 nM | TGI [18]: > 100000 nM | GI50 [19]: < 10 nM | TGI [19]: 148 nM | GI50 [20]: 51.5 nM | TGI [20]: > 100000 nM | GI50 [21]: 31.1 nM | TGI [21]: > 100000 nM | GI50 [22]: > 71600 nM | TGI [22]: > 100000 nM | GI50 [23]: < 13.1 nM | TGI [23]: 1850 nM | GI50 [24]: < 10 nM | TGI [24]: < 12.6 nM | GI50 [25]: 21.7 nM | TGI [25]: > 100000 nM | GI50 [26]: < 10 nM | GI50 [27]: 43.6 nM | TGI [27]: > 100000 nM | GI50 [28]: < 10 nM | GI50 [29]: < 10 nM | TGI [29]: > 100000 nM | GI50 [30]: < 10 nM | TGI [30]: 1030 nM | GI50 [31]: 5090 nM | TGI [31]: > 100000 nM | GI50 [32]: > 100000 nM | TGI [32]: > 100000 nM | GI50 [33]: 622 nM | TGI [33]: > 100000 nM | GI50 [34]: 470 nM | TGI [34]: > 100000 nM | GI50 [35]: 160 nM | TGI [35]: > 100000 nM | GI50 [36]: 32.1 nM | GI50 [37]: 16.9 nM | TGI [37]: 1780 nM | GI50 [38]: < 10 nM | GI50 [39]: < 10 nM | GI50 [40]: 40.9 nM | TGI [40]: > 100000 nM | GI50 [41]: 24.8 nM | TGI [41]: 955 nM | GI50 [42]: 29.9 nM | TGI [42]: > 100000 nM | GI50 [43]: 46 nM | TGI [43]: > 100000 nM | GI50 [44]: 50.3 nM | TGI [44]: > 100000 nM | GI50 [45]: 20.6 nM | TGI [45]: 94.5 nM | GI50 [46]: 70.1 nM | TGI [46]: > 100000 nM | GI50 [47]: 14.8 nM | TGI [47]: 59.4 nM | GI50 [48]: 77 nM | GI50 [49]: 21.7 nM | GI50 [50]: < 11.5 nM | GI50 [51]: < 10 nM | TGI [51]: 357 nM | GI50 [52]: 4540 nM | TGI [52]: > 100000 nM | GI50 [53]: < 10 nM | TGI [53]: > 100000 nM | GI50 [54]: < 10 nM | TGI [54]: 29.2 nM | GI50 [55]: 95.3 nM | TGI [55]: > 100000 nM | GI50 [56]: 375 nM | TGI [56]: > 100000 nM | GI50 [57]: > 100000 nM | TGI [57]: > 100000 nM | GI50 [58]: 309 nM | TGI [58]: > 100000 nM | GI50 [59]: 19.1 nM | TGI [59]: 469 nM
